Data: ChEMBL document CHEMBL5038661, “Identification of a Novel 2,8-Diazaspiro[4.5]decan-1-one Derivative as a Potent and Selective Dual TYK2/JAK1 Inhibitor for the Treatment of Inflammatory Bowel Disease” (J Med Chem, 2022)

Key:
[1] = human, microsomes
in vivo [2] = details: Sprague-Dawley, rat, po, 5 mg/kg
in vivo [3] = details: Sprague-Dawley, rat, po, 5 mg/kg; remark: listed apart in the source
in vivo [4] = details: Sprague-Dawley, rat, po, 5 mg/kg; remark: listed apart in the source
in vivo [5] = details: Sprague-Dawley, rat, po, 5 mg/kg; remark: listed apart in the source
in vivo [6] = details: Sprague-Dawley, rat, po, 5 mg/kg; remark: listed apart in the source

| Stability [1] | Cmax at 24 h (in vivo [2]) | CL/F at 24 h (in vivo [3]) | half-life at 24 h (in vivo [4]) | AUC(0-t) (in vivo [5]) | bioavailability at 24 h (in vivo [6]) | Structure (SMILES) |
| --- | --- | --- | --- | --- | --- | --- |
| Unstable |  |  |  |  |  | [2H]C([2H])([2H])n1cc(Nc2ncc(C)c(N3CCC4(CCNC4=O)CC3)n2)cn1 |
| Stable | 415 ng/mL | 41.5 mL/min/kg | 2.8 h | 2100 ng·h/mL | 59.3% | Cc1cnc(Nc2cnn(C)c2)nc1N1CCC2(CCNC2=O)CC1 |
